Measurements published in ChEMBL document CHEMBL5291721, “A preclinical secondary pharmacology resource illuminates target-adverse drug reaction associations of marketed drugs” (Nat Commun, 2023).
Values joined by “and” are separate entries in the source; they are usually repeats but may differ in a detail not shown here. Equal values may be shown once.

Experiments:
Adenosine receptor A2a = Adenosine receptor A2a (Homo sapiens, UniProt P29274)
Adenosine receptor A3 = target: T1, Adenosine receptor A3 (Homo sapiens, UniProt P0DMS8)
T1 sequence (P0DMS8 whole entry): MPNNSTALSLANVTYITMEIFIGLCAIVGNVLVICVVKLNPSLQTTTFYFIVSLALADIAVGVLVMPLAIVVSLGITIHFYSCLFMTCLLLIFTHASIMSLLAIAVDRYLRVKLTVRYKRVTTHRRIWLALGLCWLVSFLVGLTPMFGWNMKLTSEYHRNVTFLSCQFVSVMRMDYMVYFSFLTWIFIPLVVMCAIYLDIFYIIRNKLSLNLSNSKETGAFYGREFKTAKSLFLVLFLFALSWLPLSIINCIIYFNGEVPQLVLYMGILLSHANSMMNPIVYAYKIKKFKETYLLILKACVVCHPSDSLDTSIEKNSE

[1] = target: T2, Alpha-1A adrenergic receptor (Homo sapiens, UniProt P35348); type: functional, cell-based
T2 sequence (P35348 whole entry): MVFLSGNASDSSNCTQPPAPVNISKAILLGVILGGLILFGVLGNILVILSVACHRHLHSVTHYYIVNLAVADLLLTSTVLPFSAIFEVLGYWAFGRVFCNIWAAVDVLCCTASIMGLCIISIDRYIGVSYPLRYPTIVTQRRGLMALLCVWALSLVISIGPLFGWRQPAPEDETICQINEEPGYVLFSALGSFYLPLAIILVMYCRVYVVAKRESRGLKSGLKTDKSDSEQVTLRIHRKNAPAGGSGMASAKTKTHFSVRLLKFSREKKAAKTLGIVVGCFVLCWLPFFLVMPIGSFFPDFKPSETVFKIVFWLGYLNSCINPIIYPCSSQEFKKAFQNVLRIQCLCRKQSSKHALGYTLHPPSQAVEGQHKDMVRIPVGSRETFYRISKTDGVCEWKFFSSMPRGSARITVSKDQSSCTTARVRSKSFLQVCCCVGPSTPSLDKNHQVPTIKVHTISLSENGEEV

[2] = target: Beta-2 adrenergic receptor (Homo sapiens, UniProt P07550); type: functional, cell-based
Vasopressin V1a receptor = Vasopressin V1a receptor (Homo sapiens, UniProt P37288)
Vasopressin V2 receptor = Vasopressin V2 receptor (Homo sapiens, UniProt P30518)
[3] = target: T3, Muscarinic acetylcholine receptor M2 (Homo sapiens, UniProt P08172); type: functional, cell-based
T3 sequence (P08172 whole entry): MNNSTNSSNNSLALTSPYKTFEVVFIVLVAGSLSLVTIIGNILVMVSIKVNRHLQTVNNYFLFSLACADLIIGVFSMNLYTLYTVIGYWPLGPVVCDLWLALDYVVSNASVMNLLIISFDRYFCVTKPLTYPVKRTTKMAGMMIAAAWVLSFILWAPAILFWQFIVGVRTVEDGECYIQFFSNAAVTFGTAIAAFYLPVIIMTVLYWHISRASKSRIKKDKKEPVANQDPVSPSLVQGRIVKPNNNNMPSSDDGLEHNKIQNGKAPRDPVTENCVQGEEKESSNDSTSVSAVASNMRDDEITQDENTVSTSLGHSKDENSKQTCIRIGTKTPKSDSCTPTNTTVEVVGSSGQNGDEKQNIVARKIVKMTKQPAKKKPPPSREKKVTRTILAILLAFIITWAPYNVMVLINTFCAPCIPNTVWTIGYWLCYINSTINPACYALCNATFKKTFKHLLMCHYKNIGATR

[4] = target: Gamma-aminobutyric acid receptor subunit alpha-1 (Rattus norvegicus, UniProt P62813)
[5] = target: 5-hydroxytryptamine receptor 2B (Homo sapiens, UniProt P41595); type: functional, cell-based
Motilin receptor = Motilin receptor (Homo sapiens, UniProt O43193)
[6] = target: 3',5'-cyclic-AMP phosphodiesterase 4D (Homo sapiens, UniProt Q08499); type: functional
Mu-type opioid receptor = Mu-type opioid receptor (Homo sapiens, UniProt P35372)
[7] = target: cGMP-inhibited 3',5'-cyclic phosphodiesterase 3A (Homo sapiens, UniProt Q14432); type: functional
[8] = target: T2, Alpha-1A adrenergic receptor; type: functional, cell-based; remark: listed apart in the source
Further: assay procedure not described here.

Sequence of Motilin receptor (O43193 whole entry): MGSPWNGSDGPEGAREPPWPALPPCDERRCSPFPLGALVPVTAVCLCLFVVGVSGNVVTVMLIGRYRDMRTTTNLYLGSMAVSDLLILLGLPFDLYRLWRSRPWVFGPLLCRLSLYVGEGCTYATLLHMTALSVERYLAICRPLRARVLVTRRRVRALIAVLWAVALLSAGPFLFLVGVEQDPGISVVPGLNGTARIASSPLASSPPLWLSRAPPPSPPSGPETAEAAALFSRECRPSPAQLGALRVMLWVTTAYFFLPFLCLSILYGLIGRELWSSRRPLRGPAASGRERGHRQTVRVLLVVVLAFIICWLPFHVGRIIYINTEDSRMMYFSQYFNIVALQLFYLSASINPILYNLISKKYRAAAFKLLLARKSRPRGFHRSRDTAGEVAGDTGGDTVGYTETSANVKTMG
Sequence of 3',5'-cyclic-AMP phosphodiesterase 4D (Q08499 whole entry): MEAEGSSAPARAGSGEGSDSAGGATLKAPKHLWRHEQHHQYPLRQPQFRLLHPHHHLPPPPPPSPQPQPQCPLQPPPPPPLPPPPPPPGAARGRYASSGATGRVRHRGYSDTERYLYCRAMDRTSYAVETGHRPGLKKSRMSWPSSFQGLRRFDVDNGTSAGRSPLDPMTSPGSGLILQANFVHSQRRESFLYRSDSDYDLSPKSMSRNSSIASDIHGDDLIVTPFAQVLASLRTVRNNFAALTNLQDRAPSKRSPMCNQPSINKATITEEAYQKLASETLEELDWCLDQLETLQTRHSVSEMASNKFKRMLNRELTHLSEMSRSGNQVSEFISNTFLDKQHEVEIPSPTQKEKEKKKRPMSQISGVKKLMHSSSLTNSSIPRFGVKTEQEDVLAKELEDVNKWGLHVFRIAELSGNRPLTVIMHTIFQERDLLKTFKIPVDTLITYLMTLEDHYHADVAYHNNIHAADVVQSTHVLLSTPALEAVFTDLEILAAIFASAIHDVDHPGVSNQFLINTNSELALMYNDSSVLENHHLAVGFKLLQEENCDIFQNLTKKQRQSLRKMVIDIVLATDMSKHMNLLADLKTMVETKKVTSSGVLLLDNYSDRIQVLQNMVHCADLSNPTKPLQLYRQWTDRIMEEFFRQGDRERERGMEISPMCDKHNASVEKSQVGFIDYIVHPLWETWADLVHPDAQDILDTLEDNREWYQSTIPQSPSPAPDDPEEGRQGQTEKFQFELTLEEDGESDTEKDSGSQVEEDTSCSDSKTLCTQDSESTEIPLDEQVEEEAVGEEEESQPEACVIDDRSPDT
Sequence of Mu-type opioid receptor (P35372 whole entry): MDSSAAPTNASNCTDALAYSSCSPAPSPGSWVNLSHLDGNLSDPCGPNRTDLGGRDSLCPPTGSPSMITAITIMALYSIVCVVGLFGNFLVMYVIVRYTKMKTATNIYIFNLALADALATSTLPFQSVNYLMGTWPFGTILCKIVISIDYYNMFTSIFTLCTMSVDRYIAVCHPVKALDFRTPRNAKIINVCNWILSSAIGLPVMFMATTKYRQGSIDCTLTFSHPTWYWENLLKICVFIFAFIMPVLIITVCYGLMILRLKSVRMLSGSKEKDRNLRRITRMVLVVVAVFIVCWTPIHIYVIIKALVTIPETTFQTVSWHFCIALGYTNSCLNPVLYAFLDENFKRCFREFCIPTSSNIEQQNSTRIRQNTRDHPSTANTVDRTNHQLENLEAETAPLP
Sequence of 5-hydroxytryptamine receptor 2B (P41595 whole entry): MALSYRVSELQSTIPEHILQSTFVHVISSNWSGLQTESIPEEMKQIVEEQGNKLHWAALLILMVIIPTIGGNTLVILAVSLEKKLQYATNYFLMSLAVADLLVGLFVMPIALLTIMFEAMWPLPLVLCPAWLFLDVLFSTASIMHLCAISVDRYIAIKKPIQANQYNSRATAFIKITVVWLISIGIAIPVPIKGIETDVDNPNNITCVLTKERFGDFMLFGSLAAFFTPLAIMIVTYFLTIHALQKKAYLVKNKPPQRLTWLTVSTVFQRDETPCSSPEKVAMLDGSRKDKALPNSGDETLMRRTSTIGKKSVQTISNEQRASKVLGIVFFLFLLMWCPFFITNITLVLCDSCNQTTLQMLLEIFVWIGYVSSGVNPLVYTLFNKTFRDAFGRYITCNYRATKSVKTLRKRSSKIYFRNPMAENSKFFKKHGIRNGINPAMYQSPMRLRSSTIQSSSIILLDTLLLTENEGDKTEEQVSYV
Sequence of Vasopressin V1a receptor (P37288 whole entry): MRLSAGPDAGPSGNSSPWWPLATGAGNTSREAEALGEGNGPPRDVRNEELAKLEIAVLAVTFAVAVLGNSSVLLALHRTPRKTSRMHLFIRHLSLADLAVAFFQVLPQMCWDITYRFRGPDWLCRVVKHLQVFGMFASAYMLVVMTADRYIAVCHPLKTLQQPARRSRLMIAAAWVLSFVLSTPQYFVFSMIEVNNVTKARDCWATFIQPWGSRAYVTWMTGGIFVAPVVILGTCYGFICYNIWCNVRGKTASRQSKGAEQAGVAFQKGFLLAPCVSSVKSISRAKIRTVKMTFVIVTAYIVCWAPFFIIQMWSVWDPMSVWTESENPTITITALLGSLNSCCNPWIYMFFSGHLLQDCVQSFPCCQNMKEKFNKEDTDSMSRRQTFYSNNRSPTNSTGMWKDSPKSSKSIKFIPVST
Sequence of Beta-2 adrenergic receptor (P07550 whole entry): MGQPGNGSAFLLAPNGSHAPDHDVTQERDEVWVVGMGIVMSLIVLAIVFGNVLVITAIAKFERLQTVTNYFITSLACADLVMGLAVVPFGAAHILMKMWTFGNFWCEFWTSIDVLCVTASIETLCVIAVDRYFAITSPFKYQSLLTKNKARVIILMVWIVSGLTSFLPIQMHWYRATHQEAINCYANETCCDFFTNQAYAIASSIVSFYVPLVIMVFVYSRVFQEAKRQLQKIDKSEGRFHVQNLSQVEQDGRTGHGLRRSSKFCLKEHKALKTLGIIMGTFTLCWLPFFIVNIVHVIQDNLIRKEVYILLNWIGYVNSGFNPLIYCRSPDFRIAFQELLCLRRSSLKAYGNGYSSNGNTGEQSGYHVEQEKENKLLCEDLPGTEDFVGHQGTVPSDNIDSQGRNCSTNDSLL
Sequence of Adenosine receptor A2a (P29274 whole entry): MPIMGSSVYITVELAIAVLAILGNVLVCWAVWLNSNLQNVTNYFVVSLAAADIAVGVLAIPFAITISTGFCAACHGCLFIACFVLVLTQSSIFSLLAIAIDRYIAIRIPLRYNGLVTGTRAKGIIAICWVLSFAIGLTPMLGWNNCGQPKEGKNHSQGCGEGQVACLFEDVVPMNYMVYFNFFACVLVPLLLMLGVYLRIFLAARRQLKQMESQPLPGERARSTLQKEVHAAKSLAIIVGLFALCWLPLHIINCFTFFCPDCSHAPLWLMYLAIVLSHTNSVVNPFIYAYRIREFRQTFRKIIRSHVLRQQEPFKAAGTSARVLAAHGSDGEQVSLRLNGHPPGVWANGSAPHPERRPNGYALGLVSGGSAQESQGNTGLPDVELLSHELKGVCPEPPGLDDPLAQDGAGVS
Sequence of cGMP-inhibited 3',5'-cyclic phosphodiesterase 3A (Q14432 whole entry): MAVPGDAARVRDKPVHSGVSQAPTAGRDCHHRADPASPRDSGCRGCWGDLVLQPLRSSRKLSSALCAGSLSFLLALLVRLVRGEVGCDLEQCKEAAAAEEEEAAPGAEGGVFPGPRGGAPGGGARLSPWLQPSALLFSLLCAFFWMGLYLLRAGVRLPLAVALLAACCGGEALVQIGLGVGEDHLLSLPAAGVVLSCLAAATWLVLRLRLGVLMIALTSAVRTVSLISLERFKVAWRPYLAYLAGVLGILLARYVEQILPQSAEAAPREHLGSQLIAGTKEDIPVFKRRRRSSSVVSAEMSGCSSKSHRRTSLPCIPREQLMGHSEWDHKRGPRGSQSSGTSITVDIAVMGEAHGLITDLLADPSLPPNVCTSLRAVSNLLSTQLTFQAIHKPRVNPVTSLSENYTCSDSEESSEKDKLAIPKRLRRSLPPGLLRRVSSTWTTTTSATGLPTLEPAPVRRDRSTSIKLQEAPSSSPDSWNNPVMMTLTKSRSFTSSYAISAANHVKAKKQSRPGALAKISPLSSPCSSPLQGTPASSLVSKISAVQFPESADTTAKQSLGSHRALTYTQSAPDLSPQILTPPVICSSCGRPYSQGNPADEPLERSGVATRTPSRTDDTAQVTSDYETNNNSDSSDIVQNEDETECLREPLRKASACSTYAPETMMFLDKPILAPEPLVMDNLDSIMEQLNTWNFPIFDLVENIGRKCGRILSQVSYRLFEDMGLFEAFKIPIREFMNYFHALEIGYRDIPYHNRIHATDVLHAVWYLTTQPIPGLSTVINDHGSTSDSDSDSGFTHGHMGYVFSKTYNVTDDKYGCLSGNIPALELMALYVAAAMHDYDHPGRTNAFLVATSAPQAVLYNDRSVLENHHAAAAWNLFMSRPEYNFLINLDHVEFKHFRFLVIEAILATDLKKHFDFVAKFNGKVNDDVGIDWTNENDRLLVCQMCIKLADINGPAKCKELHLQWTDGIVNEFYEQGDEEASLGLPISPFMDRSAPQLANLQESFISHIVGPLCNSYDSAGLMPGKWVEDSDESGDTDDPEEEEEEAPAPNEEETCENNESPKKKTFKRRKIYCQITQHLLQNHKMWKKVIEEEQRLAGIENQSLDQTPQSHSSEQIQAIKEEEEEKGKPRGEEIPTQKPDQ
Sequence of Vasopressin V2 receptor (P30518 whole entry): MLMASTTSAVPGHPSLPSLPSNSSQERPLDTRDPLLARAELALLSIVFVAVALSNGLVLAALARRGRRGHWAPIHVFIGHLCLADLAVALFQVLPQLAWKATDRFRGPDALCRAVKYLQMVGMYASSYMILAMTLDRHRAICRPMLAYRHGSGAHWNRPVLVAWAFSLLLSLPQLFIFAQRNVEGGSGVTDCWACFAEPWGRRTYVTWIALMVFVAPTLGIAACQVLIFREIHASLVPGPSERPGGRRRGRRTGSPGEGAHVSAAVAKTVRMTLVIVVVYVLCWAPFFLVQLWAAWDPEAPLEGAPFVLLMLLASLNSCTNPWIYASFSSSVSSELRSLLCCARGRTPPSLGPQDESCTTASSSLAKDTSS

Structure (SMILES) | AC50 (Adenosine receptor A2a) [µM] | AC50 (Adenosine receptor A3) | AC50 [1] [µM] | AC50 [2] [µM] | AC50 (Vasopressin V1a receptor) [µM] | AC50 (Vasopressin V2 receptor) [µM] | AC50 [3] [µM] | AC50 [4] [µM] | AC50 [5] | AC50 (Motilin receptor) | AC50 [6] [µM] | AC50 (Mu-type opioid receptor) [µM] | AC50 [7] [µM] | AC50 [8] [µM]
CN(C)CCc1c[nH]c2ccc(Cn3cncn3)cc12 [RIZATRIPTAN] | > 30 | > 30 µM | > 30 | > 30 | > 10 | > 30 | > 30 | > 30 | > 10 µM | > 10 µM | > 30 | > 10 | > 30 | > 30
OC[C@H]1O[C@@](CO)(O[C@H]2O[C@H](CO)[C@@H](O)[C@H](O)[C@H]2O)[C@@H](O)[C@@H]1O [SUCROSE] | > 30 | > 30 µM | > 30 | > 30 | > 30 | > 30 | > 30 | > 30 | > 30 µM | > 30 µM | > 30 | – | > 30 | > 30
Nc1ccc(S(=O)(=O)Nc2nccs2)cc1 [SULFATHIAZOLE] | > 30 | > 30 µM | > 30 | > 30 | > 10 | > 30 | > 10 | > 10 | > 10 µM | > 10 µM | > 30 | > 30 | > 30 | > 30
O=C1C(CC[S+]([O-])c2ccccc2)C(=O)N(c2ccccc2)N1c1ccccc1 (stereo not given) [SULFINPYRAZONE] | > 10 | > 10 µM | > 30 | > 30 | > 10 | > 10 | > 10 | > 10 | > 30 µM | > 10 µM | > 30 | > 30 | > 30 | > 30
C=CC[C@@H]1/C=C(\C)C[C@H](C)C[C@H](OC)[C@H]2O[C@@](O)(C(=O)C(=O)N3CCCC[C@H]3C(=O)O[C@H](/C(C)=C/[C@@H]3CC[C@@H](O)[C@H](OC)C3)[C@H](C)[C@@H](O)CC1=O)[C@H](C)C[C@@H]2OC [TACROLIMUS ANHYDROUS] | > 30 | 11 µM and 27.2 µM | > 30 | > 30 | > 30 | > 30 | > 10 | > 30 | 23 µM and 20 µM | 9.44 µM and > 10 µM | > 30 | > 30 | > 30 | > 30
C[C@H](CCC(=O)O)[C@H]1CC[C@H]2[C@@H]3[C@@H](O)C[C@@H]4C[C@H](O)CC[C@]4(C)[C@H]3CC[C@]12C [URSODIOL] | > 30 | > 30 µM | > 30 | > 30 | > 30 | – | > 30 | – | > 30 µM | > 30 µM | > 30 | > 30 | > 30 | > 30

Now from value to compound:

AC50 (Adenosine receptor A2a) [µM] | AC50 (Adenosine receptor A3) | AC50 [1] [µM] | AC50 [2] [µM] | AC50 (Vasopressin V1a receptor) [µM] | AC50 (Vasopressin V2 receptor) [µM] | AC50 [3] [µM] | AC50 [4] [µM] | AC50 [5] | AC50 (Motilin receptor) | AC50 [6] [µM] | AC50 (Mu-type opioid receptor) [µM] | AC50 [7] [µM] | AC50 [8] [µM] | Structure (SMILES)
> 30 | > 30 µM | > 30 | > 30 | > 30 | > 30 | > 30 | > 30 | > 30 µM | > 30 µM | 4.16 | > 30 | > 30 | > 30 | CC(C)c1nc(N(C)S(C)(=O)=O)nc(-c2ccc(F)cc2)c1/C=C/[C@@H](O)C[C@@H](O)CC(=O)O [ROSUVASTATIN]
> 30 | > 30 µM | > 30 | > 30 | > 30 | – | > 30 | > 10 | > 30 µM | > 30 µM | > 30 | > 30 | > 30 | > 30 | N[C@@H](CC(=O)N1CCn2c(nnc2C(F)(F)F)C1)Cc1cc(F)c(F)cc1F [SITAGLIPTIN]
> 30 | > 30 µM | > 30 | > 30 | > 30 | – | > 30 | – | > 30 µM | > 30 µM | > 30 | > 30 | > 30 | > 30 | CC(S)C(=O)NCC(=O)O (stereo not given) [TIOPRONIN]
